Counter-ions that a name gives are not always drawn.
How the values were obtained:
[1] = test system: R18 labelled PR8 WT virus; assay: Influenza virus membrane fusion assay (R18 fluorescence); assay type: cell-based, Influenza A virus; settings: 90 min
SARS-CoV-2 = assay: SARS CoV-2 infection studies in the hamster model; assay type: in vivo, Syrian golden hamsters; settings: CQ dosed therapeutically
[2] = test system: pseudotyped SARS CoV-2 particles; assay: microbe, parasite or virus in culture; assay type: cell-based; settings: Severe acute respiratory syndrome coronavirus 2; read-out: inhibition of pseudotyped SARS CoV-2 virus entry

With `Cl.N` [NH4Cl, ammonium chloride] the “virus-entry associated increase in fluorescence intensity” value ([1]; 10 μM NH4Cl) was “able to inhibit”.

In the case of `CCN(CC)CCCC(C)Nc1ccnc2cc(Cl)ccc12` (centres unmarked) [CQ, Chloroquine, reference compound], the “lung viral loads reduced by” value (SARS-CoV-2) is reported as roughly 1 log, the “virus-entry associated increase in fluorescence intensity” value ([1]; 10 μM CQ) is reported as “able to inhibit” and the inhibition at 10 µM [2] is reported as 90%.

In the case of `CN(C)C(=O)COC(=O)Cc1ccc(OC(=O)c2ccc(NC(=N)N)cc2)cc1` [CM, Camostat mesylate, reference compound], the inhibition at 500 µM [2] is reported as 60%.

Reference: patent US12268676B2, “Antiviral applications of picolinic acid and its derivatives” (INDIAN INSTITUTE OF SCIENCE, priority 2021, dated 2025)
